Assay results: paper PMC3685872 (Bioorganic & medicinal chemistry, 2013)
Blank lines part the entries; values can stand above or below the compound they belong to.

Key:
[1] = test system: Jurkat T cell acute lymphoblastic leukemia cell line; experiment: Anti-leukemia AlamarBlue assay in Jurkat cells; assay type: cell-based, human; conditions: for loss in anti-leukemic potency compared to oxygenated counterpart / loss in anti-leukemic potency compared to dimer 838: Jurkat cells; for loss in anti-leukemic potency compared to oxygenated counterpart: phosphoryl oxygen replaced with sulfur; for loss in anti-leukemic potency compared to dimer 838: relative to 838
CMV = conditions: cited from earlier work
[2] = test system: prostate cancer LNCaP cells; conditions: compared with standard drug doxorubicin; ref [12]; cited from earlier work
[3] = test system: PHA-stimulated peripheral blood mononuclear cells (PBMCs); experiment: Toxicity to nonmalignant PHA-stimulated PBMCs; assay type: cell-based; conditions: Homo sapiens, PBMC, 48 h, read-out: PHA-stimulated PBMC IC50

SMILES: C[C@H]1[C@@H](CC(COP(=S)(Oc2ccccc2)Oc2ccccc2)C[C@H]2O[C@@H]3O[C@@]4(C)CC[C@H]5[C@H](C)CC[C@@H]([C@H]2C)[C@@]35OO4)O[C@@H]2O[C@@]3(C)CC[C@H]4[C@H](C)CC[C@@H]1[C@@]24OO3 (stereo partly drawn) [compound 855, dimer diphenylthiophosphate ester]
loss in anti-leukemic potency compared to oxygenated counterpart [1]: ~ 18 fold

SMILES: C[C@H]1[C@@H](CC(COP(=O)(Oc2ccccc2)Oc2ccccc2)C[C@H]2O[C@@H]3O[C@@]4(C)CC[C@H]5[C@H](C)CC[C@@H]([C@H]2C)[C@@]35OO4)O[C@@H]2O[C@@]3(C)CC[C@H]4[C@H](C)CC[C@@H]1[C@@]24OO3 (stereo partly drawn) [compound 838, trioxane dimer diphenyl phosphate ester]
selectivity index (anti-CMV/cytotoxicity) (CMV; ref [10]): approximately 1500 | potency at inhibiting growth of LNCaP cells [2]: more potent than the standard drug doxorubicin

SMILES: C[C@H]1[C@@H](CC(COP(=O)(OC2CCCCC2)OC2CCCCC2)C[C@H]2O[C@@H]3O[C@@]4(C)CC[C@H]5[C@H](C)CC[C@@H]([C@H]2C)[C@@]35OO4)O[C@@H]2O[C@@]3(C)CC[C@H]4[C@H](C)CC[C@@H]1[C@@]24OO3 (stereo partly drawn) [compound 851, dimer dicyclohexylphosphate ester]
loss in anti-leukemic potency compared to dimer 838 [1]: about half as efficacious

SMILES: Cc1cccc(C)c1OP(=O)(OCC(C[C@H]1O[C@@H]2O[C@@]3(C)CC[C@H]4[C@H](C)CC[C@@H]([C@H]1C)[C@@]24OO3)C[C@H]1O[C@@H]2O[C@@]3(C)CC[C@H]4[C@H](C)CC[C@@H]([C@H]1C)[C@@]24OO3)Oc1c(C)cccc1C [compound 895, dimer bis-(2,6-dimethylphenyl)phosphate ester]
loss in anti-leukemic potency compared to dimer 838 [1]: comparable potency

Anti-leukemia IC50 ([1]; Jurkat T-ALL cells, 48 hours of drug treatment, AlamarBlue, average of triplicate experiments): essentially inactive
SMILES: CO[C@H]1O[C@@H]2O[C@@]3(C)CC[C@H]4[C@H](C)CC[C@@H]([C@H]1C)[C@@]24OO3 [Artemether, artemether, reference compound]
activity against CMV (CMV; as previously determined, ref [9]): weak activity

SMILES: C[C@H]1[C@@H](CC(COP(=O)(O)Oc2ccccc2)C[C@H]2O[C@@H]3O[C@@]4(C)CC[C@H]5[C@H](C)CC[C@@H]([C@H]2C)[C@@]35OO4)O[C@@H]2O[C@@]3(C)CC[C@H]4[C@H](C)CC[C@@H]1[C@@]24OO3 (stereo partly drawn) [compound 762, monophenylphosphate ester]
IC50 [3]: ~40 µM | loss in anti-leukemic potency compared to dimer 838 [1]: 70 fold

SMILES: CC(C)c1ccc(OP(=O)(OCC(C[C@H]2O[C@@H]3O[C@@]4(C)CC[C@H]5[C@H](C)CC[C@@H]([C@H]2C)[C@@]35OO4)C[C@H]2O[C@@H]3O[C@@]4(C)CC[C@H]5[C@H](C)CC[C@@H]([C@H]2C)[C@@]35OO4)Oc2ccc(C(C)C)cc2)cc1 [compound 923, dimer bis-(4-isopropylphenyl)phosphate ester]
loss in anti-leukemic potency compared to dimer 838 [1]: 5 fold

SMILES: C[C@H]1[C@@H](CC(COP2(=S)Oc3ccccc3-c3ccccc3O2)C[C@H]2O[C@@H]3O[C@@]4(C)CC[C@H]5[C@H](C)CC[C@@H]([C@H]2C)[C@@]35OO4)O[C@@H]2O[C@@]3(C)CC[C@H]4[C@H](C)CC[C@@H]1[C@@]24OO3 (stereo partly drawn) [compound 853, dimer biphenylthiophosphate ester]
loss in anti-leukemic potency compared to oxygenated counterpart [1]: ~ 9 fold

SMILES: C[C@H]1[C@@H](CC(COP2(=O)Oc3ccccc3-c3ccccc3O2)C[C@H]2O[C@@H]3O[C@@]4(C)CC[C@H]5[C@H](C)CC[C@@H]([C@H]2C)[C@@]35OO4)O[C@@H]2O[C@@]3(C)CC[C@H]4[C@H](C)CC[C@@H]1[C@@]24OO3 (stereo partly drawn) [compound 836, dimer biphenylphosphate ester]
loss in anti-leukemic potency compared to dimer 838 [1]: about half as efficacious
